PubChem BioAssay AID1963867 (Molecular Pharmacology Branch, DTP, NCI, 2024)

System: KRAS-mutant PDC tumor spheroid with HUVEC/MSC, viability
Test: Anticancer human tumor 327498-153-R-J2-PDC patient-derived uterine carcinosarcoma cell line growth inhibition [KRAS2]
Settings: for viability, T/C: stronger effect = lower value; active = viability on the fitted dose curve at most 10% of control; inactive = the rest
In short: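 KRAS-mutant tumor cells were grown as spheroids with HUVEC endothelial cells and human MSCs as stroma. Targeted agents were tested alone and with KRAS pathway inhibitors. Doses started at or near clinical Cmax, or 10 microM, descending half-log.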

[1] = curve of first compound, second compound 0.1 µM
[2] = curve of first compound, second compound 0.316 µM
[3] = curve of first compound, second compound 1 µM
[4] = curve of first compound, second compound 3.16 µM
[5] = curve of first compound, second compound 10 µM
[6] = second compound 0.1 µM, first compound 0.0316 µM
[7] = second compound 0.1 µM, first compound 0.1 µM
[8] = second compound 0.316 µM, first compound 0.0316 µM
[9] = second compound 0.316 µM, first compound 0.1 µM
[10] = second compound 1 µM, first compound 0.0316 µM
[11] = second compound 1 µM, first compound 0.1 µM
[12] = second compound 3.16 µM, first compound 0.0316 µM
[13] = second compound 3.16 µM, first compound 0.1 µM
[14] = second compound 10 µM, first compound 0.0316 µM
[15] = second compound 10 µM, first compound 0.1 µM
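Note: spheroids exposed to agents for seven days before reading.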
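Throughout, for viability, T/C: 100% = DMSO vehicle wells so lower means fewer viable cells.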

CC(C)NCC(C(=O)N1CCN(c2ncnc3c2C(C)CC3O)CC1)c1ccc(Cl)cc1 (configuration not stated) + COc1cc2nc(C)nc(NC(C)c3cc(N)cc(C(F)(F)F)c3)c2cc1OC1CCOC1
< 31.6 nM: IC50 [4] | IC50 [5]
102 nM: IC50 [2]
inactive: viability, T/C [6] 70.8% | viability, T/C [7] 57.7% | viability, T/C (second compound 0.1 µM, first compound 0.316 µM) 44% | viability, T/C (second compound 0.1 µM, first compound 1 µM) 26.3% | viability, T/C (second compound 0.1 µM, first compound 3.16 µM) 9.54% | viability, T/C [8] 62.5% | viability, T/C [9] 49.5% | viability, T/C (second compound 0.316 µM, first compound 0.316 µM) 34.4% | viability, T/C (second compound 0.316 µM, first compound 1 µM) 21.7% | viability, T/C (second compound 0.316 µM, first compound 3.16 µM) 8.09% | viability, T/C [10] 60% | viability, T/C [11] 51% | viability, T/C (second compound 1 µM, first compound 0.316 µM) 28.8% | viability, T/C (second compound 1 µM, first compound 1 µM) 17.7% | viability, T/C [12] 54.4% | viability, T/C [13] 42.1% | viability, T/C (second compound 3.16 µM, first compound 0.316 µM) 43.6% | viability, T/C (second compound 3.16 µM, first compound 1 µM) 14.2% | viability, T/C [14] 37.8% | viability, T/C [15] 27.3% | viability, T/C (second compound 10 µM, first compound 0.316 µM) 16.6%
active: viability, T/C (second compound 0.1 µM, first compound 10 µM) 9.87% | viability, T/C (second compound 0.316 µM, first compound 10 µM) 9.57% | viability, T/C (second compound 1 µM, first compound 3.16 µM) 7.32% | viability, T/C (second compound 1 µM, first compound 10 µM) 3.46% | viability, T/C (second compound 3.16 µM, first compound 3.16 µM) 8.44% | viability, T/C (second compound 3.16 µM, first compound 10 µM) 8.27% | viability, T/C (second compound 10 µM, first compound 1 µM) 5.51% | viability, T/C (second compound 10 µM, first compound 3.16 µM) 0.16% | viability, T/C (second compound 10 µM, first compound 10 µM) 0.34%
90.7 nM: IC50 [3]
195 nM: IC50 [1]

CC(C)n1nc(-c2ccc3oc(N)nc3c2)c2c(N)ncnc21 + C=CC(=O)N1CCN(c2nc(=O)n(-c3c(C)ccnc3C(C)C)c3nc(-c4c(O)cccc4F)c(F)cc23)C(C)C1
inactive: viability, T/C (second compound 0.1 µM, first compound 0.000316 µM) 57.6% | viability, T/C (second compound 0.1 µM, first compound 0.001 µM) 40.7% | viability, T/C (second compound 0.1 µM, first compound 0.00316 µM) 34.6% | viability, T/C (second compound 0.1 µM, first compound 0.01 µM) 17.6% | viability, T/C [6] 8.67% | viability, T/C (second compound 0.316 µM, first compound 0.000316 µM) 45.4% | viability, T/C (second compound 0.316 µM, first compound 0.001 µM) 41.2% | viability, T/C (second compound 0.316 µM, first compound 0.00316 µM) 26.1% | viability, T/C (second compound 0.316 µM, first compound 0.01 µM) 14.3% | viability, T/C (second compound 1 µM, first compound 0.000316 µM) 49.5% | viability, T/C (second compound 1 µM, first compound 0.001 µM) 38% | viability, T/C (second compound 1 µM, first compound 0.00316 µM) 23.5% | viability, T/C (second compound 1 µM, first compound 0.01 µM) 14.4% | viability, T/C (second compound 3.16 µM, first compound 0.000316 µM) 42.1% | viability, T/C (second compound 3.16 µM, first compound 0.001 µM) 33.2% | viability, T/C (second compound 3.16 µM, first compound 0.00316 µM) 21.5% | viability, T/C (second compound 3.16 µM, first compound 0.01 µM) 13.9% | viability, T/C (second compound 10 µM, first compound 0.000316 µM) 31.1% | viability, T/C (second compound 10 µM, first compound 0.001 µM) 25.3% | viability, T/C (second compound 10 µM, first compound 0.00316 µM) 19.1% | viability, T/C (second compound 10 µM, first compound 0.01 µM) 8.99%
< 0.316 nM: IC50 [2] | IC50 [3] | IC50 [4] | IC50 [5]
active: viability, T/C [7] 5.6% | viability, T/C [8] 9.71% | viability, T/C [9] 5.39% | viability, T/C [10] 7.05% | viability, T/C [11] 5.38% | viability, T/C [12] 6.92% | viability, T/C [13] 6.19% | viability, T/C [14] 5.88% | viability, T/C [15] 5.69%
0.576 nM: IC50 [1]

COc1cc(Nc2ncc3c(n2)-c2ccc(Cl)cc2C(c2c(F)cccc2OC)=NC3)ccc1C(=O)O
< 31.6 nM: IC50 (curve of compound)
inactive: viability, T/C (compound 0.0316 µM) 19.4% [middle of 5 runs] | viability, T/C (compound 0.1 µM) 13.1% [middle of 5 runs] | viability, T/C (compound 0.316 µM) 11.2% [middle of 5 runs] | viability, T/C (compound 1 µM) 12.1% [middle of 5 runs] | viability, T/C (compound 3.16 µM) 12.5% [middle of 5 runs] | viability, T/C (compound 10 µM) 14.5% [middle of 5 runs]
